Columns and labels:
[1] = biological target: T1, Plasminogen (Homo sapiens, UniProt P00747); assay: Inhibitory activity against plasmin
[2] = biological target: Prothrombin (Bos taurus, UniProt P00735)
Description: Inhibitory activity against thrombin

[3] = biological target: T2, Serine protease 1 (Bos taurus, UniProt P00760); assay: Inhibitory activity against trypsin
T2 sequence (P00760 whole entry): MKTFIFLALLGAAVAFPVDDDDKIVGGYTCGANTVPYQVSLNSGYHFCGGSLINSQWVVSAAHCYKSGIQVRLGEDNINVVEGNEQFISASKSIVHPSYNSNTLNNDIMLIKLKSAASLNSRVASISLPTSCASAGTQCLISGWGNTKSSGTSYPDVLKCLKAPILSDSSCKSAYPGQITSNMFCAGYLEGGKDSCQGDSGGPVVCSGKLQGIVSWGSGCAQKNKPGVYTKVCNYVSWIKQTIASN

[4] = biological target: Coagulation factor X (Bos taurus, UniProt P00743); assay: Inhibitory activity against coagulation factor X.
[5] = Concentration for doubling of thrombin time; assay type: functional, Homo sapiens
[6] = biological target: T1, Plasminogen; assay: Inhibitory activity against Plasmin.
[7] = biological target: T3, Coagulation factor XII (Homo sapiens, UniProt P00748); assay: Inhibitory activity against Coagulation factor XII
T3 sequence (P00748 whole entry): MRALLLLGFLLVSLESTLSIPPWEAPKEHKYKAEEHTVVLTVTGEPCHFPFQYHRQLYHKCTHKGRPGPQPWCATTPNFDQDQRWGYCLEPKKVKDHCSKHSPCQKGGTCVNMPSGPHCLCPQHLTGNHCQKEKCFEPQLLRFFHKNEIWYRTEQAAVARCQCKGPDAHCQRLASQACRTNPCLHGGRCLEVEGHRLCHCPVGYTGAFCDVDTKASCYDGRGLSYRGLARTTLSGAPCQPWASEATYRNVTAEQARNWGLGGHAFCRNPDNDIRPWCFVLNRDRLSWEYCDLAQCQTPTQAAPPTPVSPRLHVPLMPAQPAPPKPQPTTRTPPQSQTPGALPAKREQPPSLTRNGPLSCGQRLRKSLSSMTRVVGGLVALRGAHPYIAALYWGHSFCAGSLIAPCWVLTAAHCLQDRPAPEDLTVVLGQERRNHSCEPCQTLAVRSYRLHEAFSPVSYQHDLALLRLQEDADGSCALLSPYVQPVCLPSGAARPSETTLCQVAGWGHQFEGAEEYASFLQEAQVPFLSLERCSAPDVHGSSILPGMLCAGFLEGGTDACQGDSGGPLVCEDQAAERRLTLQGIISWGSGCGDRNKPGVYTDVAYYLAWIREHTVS

[8] = biological target: Tissue-type plasminogen activator (Homo sapiens, UniProt P00750); assay: Inhibitory activity against single-chain tissue-type plasminogen activator (sc-tissue plasminogen activator)
[9] = biological target: Vitamin K-dependent protein C (Homo sapiens, UniProt P04070); assay: Inhibitory activity against Activated protein C
[10] = biological target: Urokinase-type plasminogen activator (Homo sapiens, UniProt P00749); assay: Inhibitory activity against UK.
[11] = Concentration for doubling of partial thromboplastin time; assay type: functional, Homo sapiens
[12] = Concentration for doubling of prothrombin time; assay type: functional, Homo sapiens
[13] = biological target: Plasma kallikrein (Homo sapiens, UniProt P03952); assay: Inhibitory activity against Kallikrein (PK)
Chain of Plasma kallikrein (P03952 20-390 limits assumed): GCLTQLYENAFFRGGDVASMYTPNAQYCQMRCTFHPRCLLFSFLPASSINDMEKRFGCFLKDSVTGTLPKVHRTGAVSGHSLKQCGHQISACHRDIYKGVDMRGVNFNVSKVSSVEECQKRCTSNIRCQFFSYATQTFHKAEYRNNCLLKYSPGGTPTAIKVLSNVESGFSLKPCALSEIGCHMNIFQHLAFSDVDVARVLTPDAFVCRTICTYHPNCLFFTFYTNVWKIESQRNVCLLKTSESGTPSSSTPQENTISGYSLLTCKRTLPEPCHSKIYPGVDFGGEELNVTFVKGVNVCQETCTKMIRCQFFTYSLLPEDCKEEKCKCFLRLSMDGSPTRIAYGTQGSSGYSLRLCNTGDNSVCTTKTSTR
Chain of Plasma kallikrein (P03952 391-638 limits assumed): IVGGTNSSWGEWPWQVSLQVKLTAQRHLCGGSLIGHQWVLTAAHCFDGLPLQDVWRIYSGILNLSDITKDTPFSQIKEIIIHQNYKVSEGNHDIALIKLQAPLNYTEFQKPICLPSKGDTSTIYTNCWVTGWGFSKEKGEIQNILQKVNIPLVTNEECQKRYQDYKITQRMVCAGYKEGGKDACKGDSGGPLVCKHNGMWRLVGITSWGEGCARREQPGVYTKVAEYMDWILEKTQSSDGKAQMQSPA

T1 sequence (P00747 97-580 limits assumed): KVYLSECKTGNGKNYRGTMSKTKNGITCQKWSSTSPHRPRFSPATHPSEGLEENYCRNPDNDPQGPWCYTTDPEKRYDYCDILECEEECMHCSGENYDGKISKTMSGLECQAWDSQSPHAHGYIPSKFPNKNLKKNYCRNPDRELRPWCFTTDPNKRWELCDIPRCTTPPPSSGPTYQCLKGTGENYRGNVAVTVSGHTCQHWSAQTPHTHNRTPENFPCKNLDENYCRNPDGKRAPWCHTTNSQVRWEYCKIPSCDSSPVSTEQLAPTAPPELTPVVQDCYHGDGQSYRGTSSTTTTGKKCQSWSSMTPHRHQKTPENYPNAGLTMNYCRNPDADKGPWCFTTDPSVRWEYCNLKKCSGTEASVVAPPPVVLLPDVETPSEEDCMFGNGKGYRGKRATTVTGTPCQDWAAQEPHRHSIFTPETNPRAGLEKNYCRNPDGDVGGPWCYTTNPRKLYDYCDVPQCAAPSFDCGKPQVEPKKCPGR
T1 sequence (P00747 581-810 limits assumed): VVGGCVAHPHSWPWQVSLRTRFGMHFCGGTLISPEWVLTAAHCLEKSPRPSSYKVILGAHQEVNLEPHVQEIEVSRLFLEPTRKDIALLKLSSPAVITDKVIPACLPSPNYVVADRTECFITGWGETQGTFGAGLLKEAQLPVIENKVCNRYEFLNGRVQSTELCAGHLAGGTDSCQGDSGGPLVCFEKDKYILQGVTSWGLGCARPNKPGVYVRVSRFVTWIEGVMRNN
Chain of Tissue-type plasminogen activator (P00750 whole entry): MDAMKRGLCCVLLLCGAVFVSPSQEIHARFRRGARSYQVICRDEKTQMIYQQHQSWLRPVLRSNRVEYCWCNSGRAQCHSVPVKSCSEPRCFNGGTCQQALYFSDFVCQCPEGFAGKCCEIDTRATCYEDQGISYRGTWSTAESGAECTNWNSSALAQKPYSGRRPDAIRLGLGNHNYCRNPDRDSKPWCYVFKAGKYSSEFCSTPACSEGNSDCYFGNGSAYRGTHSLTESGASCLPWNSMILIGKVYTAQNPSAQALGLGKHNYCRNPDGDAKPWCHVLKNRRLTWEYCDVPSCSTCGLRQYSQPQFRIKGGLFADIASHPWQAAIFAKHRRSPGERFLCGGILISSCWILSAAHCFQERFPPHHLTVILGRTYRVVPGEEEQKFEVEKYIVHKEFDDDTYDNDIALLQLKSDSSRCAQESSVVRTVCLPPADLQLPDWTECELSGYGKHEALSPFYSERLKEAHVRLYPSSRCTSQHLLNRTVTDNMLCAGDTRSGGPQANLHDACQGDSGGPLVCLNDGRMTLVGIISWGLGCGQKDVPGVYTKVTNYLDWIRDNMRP
Chain of Coagulation factor X (P00743 41-180 limits assumed): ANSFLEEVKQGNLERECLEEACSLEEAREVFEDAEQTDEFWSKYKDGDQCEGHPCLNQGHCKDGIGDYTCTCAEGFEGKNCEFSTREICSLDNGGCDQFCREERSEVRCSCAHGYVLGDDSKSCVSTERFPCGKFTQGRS
Chain of Coagulation factor X (P00743 234-492 limits assumed): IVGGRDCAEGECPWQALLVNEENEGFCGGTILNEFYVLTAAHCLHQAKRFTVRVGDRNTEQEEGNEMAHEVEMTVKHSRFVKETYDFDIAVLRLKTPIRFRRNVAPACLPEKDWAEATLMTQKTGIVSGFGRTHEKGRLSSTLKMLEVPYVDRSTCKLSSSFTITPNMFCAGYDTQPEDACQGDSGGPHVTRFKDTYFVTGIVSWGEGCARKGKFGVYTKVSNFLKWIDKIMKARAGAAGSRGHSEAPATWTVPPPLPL
Chain of Vitamin K-dependent protein C (P04070 43-197 limits assumed): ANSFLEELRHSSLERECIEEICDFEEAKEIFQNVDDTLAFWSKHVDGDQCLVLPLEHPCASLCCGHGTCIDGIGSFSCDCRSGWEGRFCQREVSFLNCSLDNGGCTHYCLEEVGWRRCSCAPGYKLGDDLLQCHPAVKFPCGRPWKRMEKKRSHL
Chain of Vitamin K-dependent protein C (P04070 212-461 limits assumed): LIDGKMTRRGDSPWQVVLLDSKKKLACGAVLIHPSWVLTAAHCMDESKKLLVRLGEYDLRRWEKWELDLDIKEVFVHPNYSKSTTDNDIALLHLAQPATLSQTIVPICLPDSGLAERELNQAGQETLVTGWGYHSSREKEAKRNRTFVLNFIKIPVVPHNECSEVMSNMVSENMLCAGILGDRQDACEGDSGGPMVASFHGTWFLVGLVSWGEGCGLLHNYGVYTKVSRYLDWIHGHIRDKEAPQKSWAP

| Ki [1] [µM] | Ki [2] [µM] | Ki [3] [µM] | Ki [4] [µM] | SMILES | also measured |
| --- | --- | --- | --- | --- | --- |
| 14 | – | – | – | CC(C)(C)c1ccc(S(=O)(=O)NC(Cc2cccc(C(=N)N)c2)C(=O)N2CCN(S(C)(=O)=O)CC2)cc1 (stereo not given) | – |
| 11 | 0.35 | 0.18 | 18 | CCCCS(=O)(=O)N1CCN(C(=O)C(Cc2cccc(C(=N)N)c2)NS(=O)(=O)c2ccc3ccccc3c2)CC1 (stereo not given) | – |
| – | – | 0.064 | – | CCCCCC(=O)N1CCN(C(=O)C(Cc2cccc(C(=N)N)c2)NS(=O)(=O)c2ccc3ccccc3c2)CC1 (stereo not given) | – |
| 7.8 | 0.28 | 0.21 | 22 | CCCS(=O)(=O)N1CCN(C(=O)C(Cc2cccc(C(=N)N)c2)NS(=O)(=O)c2ccc3ccccc3c2)CC1 (stereo not given) | – |
| – | – | 0.4 | – | N=C(N)c1cccc(CC(NS(=O)(=O)c2ccc3ccccc3c2)C(=O)N2CCN(S(=O)(=O)c3ccc4ccccc4c3)CC2)c1 (stereo not given) | – |
| 6.4 | – | – | 7.4 | CC(C)c1cc(C(C)C)c(S(=O)(=O)NC(Cc2cccc(C(=N)N)c2)C(=O)N2CCN(S(C)(=O)=O)CC2)c(C(C)C)c1 (stereo not given) | – |
| – | – | 0.072 | – | N=C(N)c1cccc(CC(NS(=O)(=O)c2ccc3ccccc3c2)C(=O)N2CCN(C(=O)C3CCCCC3)CC2)c1 (stereo not given) | – |
| 10.2 | – | – | 21 | N=C(N)c1cccc(CC(NS(=O)(=O)c2ccc3ccccc3c2)C(=O)N2CCNCC2)c1 (stereo not given) | – |
| – | – | – | – | CC1CNc2c(cccc2S(=O)(=O)N[C@@H](CCCNC(=N)N)C(=O)N2CCC(C)C[C@@H]2C(=O)O)C1 (single isomer, unassigned) [ARGATROBAN] | IC50 [5]: 0.062 µM; IC50 [11]: 0.42 µM; IC50 [12]: 0.66 µM |
| 14 | 0.012 | 0.22 | 1.1 | CC1(C)C2CCC1(CCS(=O)(=O)NC(Cc1cccc(C(=N)N)c1)C(=O)N1CCN(S(C)(=O)=O)CC1)C(=O)C2 (stereo in doubt; 28) | – |
| – | – | 0.22 | – | N=C(N)c1cccc(CC(NS(=O)(=O)c2ccc3ccccc3c2)C(=O)N2CCN(C=O)CC2)c1 (stereo not given) | – |
| – | – | 0.19 | – | CCS(=O)(=O)N1CCN(C(=O)C(Cc2cccc(C(=N)N)c2)NS(=O)(=O)c2ccc3ccccc3c2)CC1 (stereo not given) | – |
| > 1000 | – | – | > 1000 | CS(=O)(=O)N1CCN(C(=O)C(N)Cc2cccc(C(=N)N)c2)CC1 (stereo not given) | – |
| 29 | 0.22 | 1 | 29 | CS(=O)(=O)N1CCN(C(=O)C(Cc2cccc(C(=N)N)c2)NS(=O)(=O)c2ccccc2)CC1 (stereo not given) | – |
| 7 | – | – | 38 | N=C(N)c1cccc(CC(NS(=O)(=O)c2ccc3ccccc3c2)C(=O)N2CCCCC2)c1 (stereo not given) | – |
| 3 | 0.46 | 0.19 | 7.3 | N=C(N)c1cccc(CC(NS(=O)(=O)c2ccc3ccccc3c2)C(=O)N2CCN(C(=O)c3ccc4ccccc4c3)CC2)c1 (stereo not given) | – |
| – | – | 0.22 | – | Cc1ccc(S(=O)(=O)N2CCN(C(=O)C(Cc3cccc(C(=N)N)c3)NS(=O)(=O)c3ccc4ccccc4c3)CC2)cc1 (stereo not given) | – |
| – | – | 0.33 | – | N=C(N)c1cccc(CC(NS(=O)(=O)c2ccc3ccccc3c2)C(=O)N2CCN(S(=O)(=O)c3ccccc3)CC2)c1 (stereo not given) | – |
| – | 0.012 | 0.22 | 1.1 | CC1(C)C2CCC1(CCS(=O)(=O)N[C@H](Cc1cccc(C(=N)N)c1)C(=O)N1CCN(S(C)(=O)=O)CC1)C(=O)C2 (stereo not given in full) | Ki [6]: 14 µM; Ki [7]: 55 µM; Ki [8]: 20 µM; Ki [9]: 33 µM; Ki [10]: 49 µM; Ki [13]: 22 µM |
| 8.6 | 1.04 | 0.049 | 80 | CCCC(=O)N1CCN(C(=O)C(Cc2cccc(C(=N)N)c2)NS(=O)(=O)c2ccc3ccccc3c2)CC1 (stereo not given) | – |
| – | – | 1.1 | – | N=C(N)c1cccc(CC(NS(=O)(=O)c2ccc3ccccc3c2)C(=O)N2CCN(CCO)CC2)c1 (stereo not given) | – |
| 2.5 | 0.67 | 0.022 | 54 | CCOC(=O)N1CCN(C(=O)C(Cc2cccc(C(=N)N)c2)NS(=O)(=O)c2ccc3ccccc3c2)CC1 (stereo not given) | – |
| 2.6 | – | – | 27 | N=C(N)c1cccc(CC(NS(=O)(=O)c2ccc3ccccc3c2)C(=O)N2CCN(c3ccccc3)CC2)c1 (stereo not given) | – |
| 14 | 0.51 | 0.22 | 12 | CCN(CC)C(=O)N1CCN(C(=O)C(Cc2cccc(C(=N)N)c2)NS(=O)(=O)c2ccc3ccccc3c2)CC1 (stereo not given) | – |
| 2.8 | – | – | 77 | COC(=O)N1CCN(C(=O)C(Cc2cccc(C(=N)N)c2)NS(=O)(=O)c2ccc3ccccc3c2)CC1 (stereo not given) | – |
| 7.2 | 7.6 | 0.14 | 16 | N=C(N)c1cccc(CC(NS(=O)(=O)c2ccc3ccccc3c2)C(=O)N2CCN(C(=O)c3ccccc3)CC2)c1 (stereo not given) | – |
| 29 | 0.031 | 0.44 | 6.7 | CC1(C)C2CCC1(CCS(=O)(=O)NC(Cc1cccc(C(=N)N)c1)C(=O)N1CCN(S(C)(=O)=O)CC1)C(=O)C2 (stereo in doubt; 30) | – |

| SMILES | Ki [1] [µM] | Ki [2] [µM] | Ki [3] [µM] | Ki [4] [µM] | also measured |
| --- | --- | --- | --- | --- | --- |
| CC1CCN(C(=O)C(Cc2cccc(C(=N)N)c2)NS(=O)(=O)c2ccc3ccccc3c2)CC1 (stereo not given) | 5.2 | – | – | 41 | – |
| N=C(N)c1cccc(C[C@@H](NS(=O)(=O)c2ccc3ccccc3c2)C(=O)N2CCN(CCO)CC2)c1 | – | 0.037 | 0.6 | 22 | IC50 [5]: 0.14 µM; Ki [6]: 21 µM; Ki [7]: 400 µM; Ki [8]: 180 µM; Ki [9]: 39 µM; Ki [10]: 140 µM; IC50 [11]: 0.56 µM; IC50 [12]: 1.1 µM; Ki [13]: 27 µM |
| CS(=O)(=O)N1CCN(C(=O)[C@@H](Cc2cccc(C(=N)N)c2)NS(=O)(=O)c2ccc3ccccc3c2)CC1 | – | – | 0.067 | 19 | IC50 [5]: 0.037 µM; Ki [6]: 9 µM; Ki [7]: 52 µM; Ki [8]: 190 µM; Ki [9]: 15.2 µM; Ki [10]: 28 µM; IC50 [11]: 0.26 µM; IC50 [12]: 0.39 µM; Ki [13]: 58 µM |
| N=C(N)c1cccc(C[C@H](NS(=O)(=O)c2ccc3ccccc3c2)C(=O)N2CCN(C=O)CC2)c1 | – | 1.6 | 11.1 | – | – |
| N=C(N)c1cccc(C[C@H](NS(=O)(=O)c2ccc3ccccc3c2)C(=O)N2CCN(CCO)CC2)c1 | – | 5.6 | 39 | – | – |
| Cc1c(C)c(S(=O)(=O)NC(Cc2cccc(C(=N)N)c2)C(=O)N2CCN(S(C)(=O)=O)CC2)c(C)c2c1OC(C)(C)CC2 (stereo not given) | – | – | 0.76 | – | – |
| CN1CCN(C(=O)[C@H](Cc2cccc(C(=N)N)c2)NS(=O)(=O)c2ccc3ccccc3c2)CC1 | – | 7.1 | 73 | – | – |
| N=C(N)c1cccc(CC(NS(=O)(=O)c2ccc3ccccc3c2)C(=O)N2CCN(C(=O)Oc3ccccc3)CC2)c1 (stereo not given) | 2.3 | 17 | 0.028 | 43 | – |
| CS(=O)(=O)N1CCN(C(=O)C(Cc2cccc(C(=N)N)c2)NS(=O)(=O)c2ccc3ccccc3c2)CC1 (stereo not given) | – | – | 0.19 | – | – |
| N=C(N)c1cccc(C[C@@H](NS(=O)(=O)c2ccc3ccccc3c2)C(=O)N2CCN(C=O)CC2)c1 | – | 0.023 | 0.073 | 9.7 | IC50 [5]: 0.063 µM; Ki [6]: 3.3 µM; Ki [7]: 53 µM; Ki [8]: 110 µM; Ki [9]: 10.3 µM; Ki [10]: 34 µM; IC50 [11]: 0.35 µM; IC50 [12]: 0.7 µM; Ki [13]: 3.3 µM |
| CS(=O)(=O)N1CCN(C(=O)[C@H](Cc2cccc(C(=N)N)c2)NS(=O)(=O)c2ccc3ccccc3c2)CC1 | – | – | 13 | – | – |
| Cc1c(C)c(S(=O)(=O)N[C@H](Cc2cccc(C(=N)N)c2)C(=O)N2CCN(S(C)(=O)=O)CC2)c(C)c2c1OC(C)(C)CC2 | – | 0.0053 | 0.32 | 41 | Ki [7]: > 1000 µM; Ki [8]: 470 µM; Ki [9]: 180 µM; Ki [10]: 58 µM; Ki [13]: 97 µM |
| CC(=O)N1CCN(C(=O)[C@H](Cc2cccc(C(=N)N)c2)NS(=O)(=O)c2ccc3ccccc3c2)CC1 | – | – | 17 | – | – |
| CN1CCN(C(=O)C(Cc2cccc(C(=N)N)c2)NS(=O)(=O)c2ccc3ccccc3c2)CC1 (stereo not given) | 55 | 0.036 | – | 30 | – |
| COc1cc(C)c(S(=O)(=O)NC(Cc2cccc(C(=N)N)c2)C(=O)N2CCN(S(C)(=O)=O)CC2)c(C)c1C (stereo not given) | – | – | 1.8 | – | – |
| CN(C)C(=O)N1CCN(C(=O)[C@H](Cc2cccc(C(=N)N)c2)NS(=O)(=O)c2ccc3ccccc3c2)CC1 | – | 0.35 | 8.5 | – | – |
| CC(=O)N1CCN(C(=O)C(Cc2cccc(C(=N)N)c2)NS(=O)(=O)c2ccc3ccccc3c2)CC1 (stereo not given) | – | – | 0.14 | – | – |
| CN(C)C(=O)N1CCN(C(=O)C(Cc2cccc(C(=N)N)c2)NS(=O)(=O)c2ccc3ccccc3c2)CC1 (stereo not given) | – | – | 0.17 | – | – |
